Source: PubChem BioAssay AID2060505 (Molecular Pharmacology Branch, DTP, NCI, 2025)

Test system: 633275-114-R-J1-PDC complex spheroids, viability
Experiment: Anticancer human tumor 633275-114-R-J1-PDC patient-derived endometrial adenocarcinoma cell line growth inhibition [GQUAD]
Details: for IC50: curve of first compound; for viability, T/C: stronger effect = lower value
How it was run: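 Multi-cell-type spheroids of tumor cells with HUVEC and mesenchymal stem cells, treated with drug combinations. Concentrations descend in half-log steps from near clinical Cmax, or from 10 microM where Cmax is unknown; viability read-out.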

[1] = second compound 0.0316 µM, first compound 0.0316 µM
[2] = second compound 0.0316 µM, first compound 0.1 µM
[3] = second compound 0.0316 µM, first compound 0.316 µM
[4] = second compound 0.0316 µM, first compound 1 µM
[5] = second compound 0.0316 µM, first compound 3.16 µM
[6] = second compound 0.0316 µM, first compound 10 µM
[7] = second compound 0.1 µM, first compound 0.0316 µM
[8] = second compound 0.1 µM, first compound 0.1 µM
[9] = second compound 0.1 µM, first compound 0.316 µM
[10] = second compound 0.1 µM, first compound 1 µM
[11] = second compound 0.1 µM, first compound 3.16 µM
[12] = second compound 0.1 µM, first compound 10 µM
[13] = second compound 0.316 µM, first compound 0.0316 µM
[14] = second compound 0.316 µM, first compound 0.1 µM
[15] = second compound 0.316 µM, first compound 0.316 µM
[16] = second compound 0.316 µM, first compound 1 µM
[17] = second compound 0.316 µM, first compound 3.16 µM
[18] = second compound 0.316 µM, first compound 10 µM
[19] = second compound 1 µM, first compound 0.0316 µM
[20] = second compound 1 µM, first compound 0.1 µM
[21] = second compound 1 µM, first compound 0.316 µM
[22] = second compound 1 µM, first compound 1 µM
[23] = second compound 1 µM, first compound 3.16 µM
[24] = second compound 1 µM, first compound 10 µM
[25] = second compound 3.16 µM, first compound 0.0316 µM
[26] = second compound 3.16 µM, first compound 0.1 µM
[27] = second compound 3.16 µM, first compound 0.316 µM
[28] = second compound 3.16 µM, first compound 1 µM
[29] = second compound 3.16 µM, first compound 3.16 µM
[30] = second compound 3.16 µM, first compound 10 µM
[31] = second compound 10 µM, first compound 0.0316 µM
[32] = second compound 10 µM, first compound 0.1 µM
[33] = second compound 10 µM, first compound 0.316 µM
[34] = second compound 10 µM, first compound 1 µM
[35] = second compound 10 µM, first compound 3.16 µM
[36] = second compound 10 µM, first compound 10 µM
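Further: spheroids exposed to the agents for seven days.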
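Wherever viability, T/C is given: percent of DMSO vehicle control viability which is 100%.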

C#Cc1c(F)ccc2cc(O)cc(-c3ncc4c(N5CC6CCC(C5)N6)nc(OCC56CCCN5CC(F)C6)nc4c3F)c12 (stereo unspecified) + CN(C)c1ccc(Nc2c3ccc(NC(=O)CCN4CCCC4)cc3nc3cc(NC(=O)CCN4CCCC4)ccc23)cc1
IC50 (second compound 0.0316 µM): > 10 µM
IC50 (second compound 0.1 µM): > 10 µM
IC50 (second compound 0.316 µM): > 10 µM
IC50 (second compound 1 µM): > 10 µM
IC50 (second compound 3.16 µM): 4.36 µM
IC50 (second compound 10 µM): < 0.0316 µM
viability, T/C [1]: 108%
viability, T/C [2]: 90.5%
viability, T/C [3]: 86.9%
viability, T/C [4]: 91.9%
viability, T/C [5]: 78%
viability, T/C [6]: 66%
viability, T/C [7]: 101%
viability, T/C [8]: 97.8%
viability, T/C [9]: 91.5%
viability, T/C [10]: 96.7%
viability, T/C [11]: 81.5%
viability, T/C [12]: 65.3%
viability, T/C [13]: 94.6%
viability, T/C [14]: 101%
viability, T/C [15]: 86.8%
viability, T/C [16]: 82.3%
viability, T/C [17]: 71.9%
viability, T/C [18]: 68.1%
viability, T/C [19]: 97.5%
viability, T/C [20]: 96.5%
viability, T/C [21]: 87.2%
viability, T/C [22]: 85.9%
viability, T/C [23]: 70.6%
viability, T/C [24]: 54.9%
viability, T/C [25]: 81.9%
viability, T/C [26]: 86.3%
viability, T/C [27]: 81.6%
viability, T/C [28]: 66.3%
viability, T/C [29]: 62%
viability, T/C [30]: 28.1%
viability, T/C [31]: 32.5%
viability, T/C [32]: 29.2%
viability, T/C [33]: 23.3%
viability, T/C [34]: 23.6%
viability, T/C [35]: 16.1%
viability, T/C [36]: 5.22%

CC(=O)O[C@H]1C(=O)[C@@]2(C)[C@H]([C@H](OC(=O)c3ccccc3)[C@]3(O)C[C@H](OC(=O)[C@H](O)[C@@H](NC(=O)c4ccccc4)c4ccccc4)C(C)=C1C3(C)C)[C@]1(OC(C)=O)CO[C@@H]1C[C@@H]2O + CN(C)c1ccc(Nc2c3ccc(NC(=O)CCN4CCCC4)cc3nc3cc(NC(=O)CCN4CCCC4)ccc23)cc1
IC50 (second compound 0.0316 µM): < 0.0316 µM
IC50 (second compound 0.1 µM): < 0.0316 µM
IC50 (second compound 0.316 µM): < 0.0316 µM
IC50 (second compound 1 µM): < 0.0316 µM
IC50 (second compound 3.16 µM): < 0.0316 µM
IC50 (second compound 10 µM): < 0.0316 µM
viability, T/C [1]: 48.9%
viability, T/C [2]: 26.1%
viability, T/C [3]: 18.4%
viability, T/C [4]: 22.6%
viability, T/C [5]: 20.9%
viability, T/C [6]: 22.7%
viability, T/C [7]: 48.3%
viability, T/C [8]: 27.3%
viability, T/C [9]: 21.6%
viability, T/C [10]: 18.9%
viability, T/C [11]: 20.5%
viability, T/C [12]: 23.5%
viability, T/C [13]: 46.4%
viability, T/C [14]: 23.6%
viability, T/C [15]: 21.2%
viability, T/C [16]: 19.1%
viability, T/C [17]: 20.7%
viability, T/C [18]: 20.4%
viability, T/C [19]: 45.9%
viability, T/C [20]: 25.5%
viability, T/C [21]: 17.5%
viability, T/C [22]: 18.8%
viability, T/C [23]: 22.4%
viability, T/C [24]: 20.8%
viability, T/C [25]: 41.4%
viability, T/C [26]: 22.8%
viability, T/C [27]: 20.4%
viability, T/C [28]: 21.3%
viability, T/C [29]: 19.6%
viability, T/C [30]: 19.8%
viability, T/C [31]: 23.8%
viability, T/C [32]: 15.3%
viability, T/C [33]: 13.8%
viability, T/C [34]: 11.8%
viability, T/C [35]: 15.2%
viability, T/C [36]: 12.9%

CCCS(=O)(=O)Nc1ccc(F)c(C(=O)c2c[nH]c3ncc(-c4ccc(Cl)cc4)cc23)c1F + CN(C)c1ccc(Nc2c3ccc(NC(=O)CCN4CCCC4)cc3nc3cc(NC(=O)CCN4CCCC4)ccc23)cc1
IC50 (second compound 0.0316 µM): 8.89 µM
IC50 (second compound 0.1 µM): 9.28 µM
IC50 (second compound 0.316 µM): 9.53 µM
IC50 (second compound 1 µM): 8.32 µM
IC50 (second compound 3.16 µM): 5.04 µM
IC50 (second compound 10 µM): < 0.0316 µM
viability, T/C [1]: 93.3%
viability, T/C [2]: 97.6%
viability, T/C [3]: 98.5%
viability, T/C [4]: 100%
viability, T/C [5]: 91%
viability, T/C [6]: 45.2%
viability, T/C [7]: 90.6%
viability, T/C [8]: 109%
viability, T/C [9]: 103%
viability, T/C [10]: 103%
viability, T/C [11]: 91.4%
viability, T/C [12]: 46.8%
viability, T/C [13]: 100%
viability, T/C [14]: 108%
viability, T/C [15]: 103%
viability, T/C [16]: 111%
viability, T/C [17]: 85.8%
viability, T/C [18]: 48.4%
viability, T/C [19]: 97.1%
viability, T/C [20]: 106%
viability, T/C [21]: 103%
viability, T/C [22]: 99.1%
viability, T/C [23]: 83.9%
viability, T/C [24]: 43.4%
viability, T/C [25]: 92.5%
viability, T/C [26]: 89%
viability, T/C [27]: 94.8%
viability, T/C [28]: 94.3%
viability, T/C [29]: 69%
viability, T/C [30]: 22.3%
viability, T/C [31]: 33.7%
viability, T/C [32]: 31.8%
viability, T/C [33]: 31.6%
viability, T/C [34]: 33.6%
viability, T/C [35]: 25.1%
viability, T/C [36]: 7.58%
